Experimental data as given in publication PMC7693203 (Epilepsia, 2020).
Read-outs that look alike come from different tables or passages of the source. Marks after values point to notes of the source that are not given here.

How the values were obtained:
[1] = healthy volunteers, cited from earlier work; for increase in AUCtau with concomitant CBD / increase in C max with concomitant CBD: steady-state ASD
[2] = cited from earlier work; for decrease in AUCtau with concomitant CBD / decrease in C max with concomitant CBD: patients with epilepsy on stable VPA
[3] = biological target: CYP2C19 (Homo sapiens, UniProt P33261); details: result in words; cited from earlier work
[4] = cited from earlier work
[5] = biological target: T1, CYP3A4 (Homo sapiens, UniProt P08684); details: result in words; cited from earlier work
[6] = biological target: T1, CYP3A4
[7] = patients with epilepsy on stable CLB; result in words; cited from earlier work
[8] = trial 17074; after CBD alone, during RIF treatment, or after CBD and RIF; of 16
[9] = biological target: T1, CYP3A4; experiment: clinical; details: in vivo

T1 sequence (P08684 whole entry): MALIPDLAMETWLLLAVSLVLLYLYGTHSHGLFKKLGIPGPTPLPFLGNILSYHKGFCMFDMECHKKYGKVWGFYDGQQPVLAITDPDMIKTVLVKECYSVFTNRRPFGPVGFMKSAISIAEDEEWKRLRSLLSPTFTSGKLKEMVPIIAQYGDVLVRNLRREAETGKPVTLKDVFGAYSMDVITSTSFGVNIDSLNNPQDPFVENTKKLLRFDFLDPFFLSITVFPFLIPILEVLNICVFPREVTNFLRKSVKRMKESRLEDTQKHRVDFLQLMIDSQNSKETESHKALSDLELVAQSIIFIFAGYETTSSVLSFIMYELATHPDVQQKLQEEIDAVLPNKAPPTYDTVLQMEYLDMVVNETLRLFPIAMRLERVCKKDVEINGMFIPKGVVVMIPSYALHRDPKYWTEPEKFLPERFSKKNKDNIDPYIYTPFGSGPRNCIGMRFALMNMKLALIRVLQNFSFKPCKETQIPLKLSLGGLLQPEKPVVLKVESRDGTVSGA
Chain of CYP2C19 (P33261 whole entry): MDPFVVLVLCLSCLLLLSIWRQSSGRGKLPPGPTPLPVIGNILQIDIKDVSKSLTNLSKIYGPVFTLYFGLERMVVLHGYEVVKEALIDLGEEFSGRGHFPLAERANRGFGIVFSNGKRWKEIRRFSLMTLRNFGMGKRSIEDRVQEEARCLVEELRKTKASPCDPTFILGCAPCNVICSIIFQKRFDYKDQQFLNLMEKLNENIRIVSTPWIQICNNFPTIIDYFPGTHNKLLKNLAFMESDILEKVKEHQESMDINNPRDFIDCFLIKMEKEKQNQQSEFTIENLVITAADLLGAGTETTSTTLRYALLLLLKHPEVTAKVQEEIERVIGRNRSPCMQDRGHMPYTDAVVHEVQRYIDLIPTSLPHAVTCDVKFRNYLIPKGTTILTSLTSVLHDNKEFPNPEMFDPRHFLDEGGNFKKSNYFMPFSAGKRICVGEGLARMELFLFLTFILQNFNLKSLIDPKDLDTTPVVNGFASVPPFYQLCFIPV

CC(C)(C)C(O)/C=C/c1ccc2c(c1)OCO2 (stereo not shown) [STP, stiripentol]
increase in AUCtau with concomitant CBD [1]: 55%
increase in C max with concomitant CBD [1]: 28%
increase in AUCtau with concomitant CBD ([2]; patients with epilepsy): 30%
increase in C max with concomitant CBD ([2]; patients with epilepsy): 17%
inhibition of CYP2C19 [3]: potent inhibitor
Plasma protein binding (PPB) [4]: 96.1%
inhibition of CYP3A4 [5]: potent inhibitor

CCCC(CCC)C(=O)O [VPA, valproate]
effect of concomitant CBD on exposure ([1]; result in words): no effect
decrease in AUCtau with concomitant CBD [2]: 17%
decrease in C max with concomitant CBD [2]: 13%
PPB when VPA and CBD are combined in vitro ([4]; result in words): not affected

OCc1ncc2n1-c1ccc(Cl)cc1C(c1ccccc1F)=NC2 [1′‐OH‐MDZ, 1′‐hydroxymidazolam]
t max ([6]; MDZ + CBD (steady-state CBD 750 mg BID), median (min‐max)): 3.00 (0.50‐5.02) ^e h
t ½ ([6]; MDZ + placebo, MDZ 2.5 mg single dose, arithmetic mean (CV%)): 6.11 (39.0) h
t max ([6]; MDZ + placebo, median (min‐max)): 0.50 (0.48‐1.55) ^d h
increase in AUCtau with concomitant CBD ([6]; steady-state CBD): 68%
increase in C max with concomitant CBD ([6]; steady-state CBD): 12%
increase in t ½ with concomitant CBD ([6]; steady-state CBD): 35%
delay to t max, median of differences ([6]; with concomitant CBD, 90% CI = 1.00‐2.52): 2.25 h

CN1C(=O)CC(=O)N(c2ccccc2)c2cc(Cl)ccc21 [CLB, clobazam]
increase in AUCtau with concomitant CBD [1]: 21%
increase in C max with concomitant CBD [1]: 20%
effect of concomitant CBD on exposure [7]: no effect

CO[C@H]1/C=C/O[C@@]2(C)Oc3c(C)c(O)c4c(O)c(c(/C=N/N5CCN(C)CC5)c(O)c4c3C2=O)NC(=O)/C(C)=C\C=C\[C@H](C)[C@H](O)[C@@H](C)[C@@H](O)[C@@H](C)[C@H](OC(C)=O)[C@@H]1C [RIF, rifampicin]
healthy volunteers reporting AEs [8]: 81%

C=CCC(CCC)C(=O)O (stereo not shown) [4‐ene‐VPA, 2‐propyl‐4‐pentenoic acid]
decrease in AUCtau with concomitant CBD [2]: 30%
decrease in C max with concomitant CBD [2]: 23%

Cc1ncc2n1-c1ccc(Cl)cc1C(c1ccccc1F)=NC2 [MDZ, midazolam]
t max ([6]; human, in vivo): 1.00 (0.5‐3.00) h
t ½ ([6]; human, in vivo): 4.53 (14.5) h
t max ([9]; t max): 0.5 h
half-life ([9]; t ½): 4.99 h
